The experiment is described as follows: In vitro inhibition of acid induced swelling in rat platelets by 50% as a measure of NHE-1 inhibition.

These results are taken from BindingDB's records for doi:10.1021/jm0104567 (Takeda Chemical Industries, 2002).

Counter-ions that a name gives are not always drawn.

Regarding `COc1ccnc2c1C(=NN=C(N)N)CC(c1ccccc1Cl)C2` (stereo not drawn) [N-[7-(2-chlorophenyl)-4-methoxy-5,6,7,8-tetrahydro-5-quinolinyliden(imine)]iminomethanediamine. 2CH3SO3H], the half-maximal inhibitory concentration (IC50) amounted to 50 nM.

`Cc1ccnc2c1C(=NN=C(N)N)CC(c1ccc(Cl)cc1)C2` (stereo not drawn) [N-[7-(4-chlorophenyl)-4-methyl-5,6,7,8-tetrahydro-5-quinolinyliden(imine)]iminomethanediamine. dihydrochloride] showed an IC50 of 550 nM.

`NC(N)=NN=C1CC(c2ccccc2)Cc2[nH]ccc21` (stereo not drawn) [N-(6-phenyl-4,5,6,7-tetrahydro-1H-4-indolyliden(imine))iminomethanediamine. dihydrochloride] had an IC50 of 3500 nM.

`Cc1ccnc2c1C(=NN=C(N)N)CC(c1ccsc1)C2` (stereo not drawn) [N-[4-methyl-7-(3-thienyl)-5,6,7,8-tetrahydro-5-quinolinyliden(imine)]iminomethanediamine. dihydrochloride]: the half-inhibitory concentration (IC50) is 30 nM.

Compound `NC(N)=NN=c1cc(-c2ccccc2)oc2ccccc12` [N-(2-phenyl-4H-4-chromenyliden(imine))iminomethanediamine. hydrochloride] showed a concentration for half-maximal inhibition (IC50) of 6400 nM.

`Cc1ncnc2c1C(=NN=C(N)N)CC(c1ccccc1Cl)C2` (stereo not drawn) [N-[7-(2-chlorophenyl)-4-methyl-5,6,7,8-tetrahydro-5-quinazolinyliden(imine)]iminomethanediamine. dihydrochloride] yielded an IC50 of 240 nM.

Compound `COc1cccc(C=NNC(=N)N)c1OCc1ccccc1` [N-[2-(2-benzyloxy-3-methoxyphenyl)-(E)-1-meth(imine)]iminomethanediamine] came in with a 50% inhibitory concentration (IC50) of 2300 nM.

`Cc1n[nH]c2c1C(=NN=C(N)N)CC(c1ccccc1Cl)C2` (stereo not drawn) [N-[6-(2-chlorophenyl)-3-methyl-4,5,6,7-tetrahydro-1H-4-indazolyliden(imine)]iminomethanediamine. dihydrochloride]: the concentration for half-maximal inhibition (IC50) was 55 nM.

In the case of `Cc1ccc(F)cc1C1CC(=NN=C(N)N)c2c(C)ccnc2C1` (stereo not drawn) [N-[7-(5-fluoro-2-methylphenyl)-4-methyl-5,6,7,8-tetrahydro-5-quinolinyliden(imine)]iminomethanediamine. dihydrochloride], the concentration for half-maximal inhibition (IC50) was 37 nM.

`COc1ccccc1C1CC(=NN=C(N)N)c2c(C)ccnc2C1` (stereo not drawn) [N-[7-(2-methoxyphenyl)-4-methyl-5,6,7,8-tetrahydro-5-quinolinyliden(imine)]iminomethanediamine. dihydrochloride]: the IC50 turned out to be 100 nM. Compared with the last compound, the IC50 is about 2.7-fold higher.

`Cc1ccnc2c1C(=NN=C(N)N)C[C@@H](c1ccccc1Cl)C2` [N-[7-(2-chlorophenyl)-4-methyl-(7S)-5,6,7,8-tetrahydro-5-quinolinyliden(imine)]iminomethanediamine 2CH3SO3H] yielded an IC50 of 700 nM.

`Cc1ccnc2c1C(=NN=C(N)N)CC(c1ccccc1)C2` (stereo not drawn) [N-(4-methyl-7-phenyl-5,6,7,8-tetrahydro-5-quinolinyliden(imine))iminomethanediamine. dihydrochloride]: half-maximal inhibition (IC50) required 91 nM.

As to `Cc1ccnc2c1C(=NN=C(N)N)CC(c1cccc(Cl)c1)C2` (stereo not drawn) [N-[7-(3-chlorophenyl)-4-methyl-5,6,7,8-tetrahydro-5-quinolinyliden(imine)]iminomethanediamine. dihydrochloride], the concentration for half-maximal inhibition (IC50) came out at 61 nM.

In the case of `Cc1ccnc2c1C(=NN=C(N)N)CC(c1ccc(Cl)cc1Cl)C2` (stereo not drawn) [N-[7-(2,4-dichlorophenyl)-4-methyl-5,6,7,8-tetrahydro-5-quinolinyliden(imine)]iminomethanediamine. dihydrochloride], the 50% inhibitory concentration (IC50) amounted to 340 nM.

`Cc1cc(C)c2c(n1)CC(c1ccccc1)CC2=NN=C(N)N` (stereo not drawn) [N-(2,4-dimethyl-7-phenyl-5,6,7,8-tetrahydro-5-quinolinyliden(imine))iminomethanediamine. dihydrochloride] registered a concentration for half-maximal inhibition (IC50) of 180 nM.

In the case of `Cc1ccnc2c1C(=NN=C(N)N)C[C@H](c1ccccc1Cl)C2` [N-[7-(2-chlorophenyl)-4-methyl-(7S)-5,6,7,8-tetrahydro-5-quinolinyliden(imine)]iminomethanediamine 2CH3SO3H], the IC50 worked out at 20 nM.

As for `Cc1ccnc2c1C(=NN=C(N)N)CC(c1cccc(Cl)c1Cl)C2` (stereo not drawn) [N-[7-(2,3-dichlorophenyl)-4-methyl-5,6,7,8-tetrahydro-5-quinolinyliden(imine)]iminomethanediamine. dihydrochloride], the 50% inhibitory concentration (IC50) stood at 89 nM.

Regarding `Cc1ccnc2c1C(=NN=C(N)N)CC(c1cc(F)ccc1F)C2` (stereo not drawn) [N-[7-(2,5-difluorophenyl)-4-methyl-5,6,7,8-tetrahydro-5-quinolinyliden(imine)]iminomethanediamine. dihydrochloride], the midpoint of inhibition, the IC50, lay at 39 nM.

With `Cc1ccnc2c1C(=NN=C(N)N)CC(c1ccco1)C2` (stereo not drawn) [N-[7-(2-furyl)-4-methyl-5,6,7,8-tetrahydro-5-quinolinyliden(imine)]iminomethanediamine. dihydrochloride], the 50% inhibitory concentration (IC50) turned out to be 110 nM.

As for `NC(N)=NN=C1CC(c2ccccc2)Cc2ncccc21` (stereo not drawn) [N-(7-phenyl-5,6,7,8-tetrahydro-5-quinolinyliden(imine))iminomethanediamine. dihydrochloride], the IC50 came to 410 nM.

Turning to `Cc1ccnc2c1C(=NN=C(N)N)CC(c1cc(Cl)ccc1Cl)C2` (stereo not drawn) [N-[7-(2,5-dichlorophenyl)-4-methyl-5,6,7,8-tetrahydro-5-quinolinyliden(imine)]iminomethanediamine. dihydrochloride], 58 nM corresponded to half-maximal inhibition (IC50).

For `CC(C)c1ccc(C(=O)NC(=N)N)cc1S(C)(=O)=O`, half-maximal inhibition (IC50) was put at 75 nM.

Compound `Cc1cccc2c1C(=NN=C(N)N)CC(c1ccccc1Cl)O2` (stereo not drawn) [N-[2-(2-chlorophenyl)-5-methyl-3,4-dihydro-2H-4-chromenyliden(imine)]iminomethanediamine. hydrochloride] registered a half-inhibitory concentration (IC50) of 200 nM. This IC50 lies about 2.7-fold higher than the previous one.

As for `Cc1ccccc1C1CC(=NN=C(N)N)c2c(C)ccnc2C1` (stereo not drawn) [N-[4-methyl-7-(2-methylphenyl)-5,6,7,8-tetrahydro-5-quinolinyliden(imine)]iminomethanediamine. dihydrochloride], the half-inhibitory concentration (IC50) came out at 57 nM.

For the compound `Cc1ccnc2c1C(=NN=C(N)N)CC(c1ccsc1Cl)C2` (stereo not drawn) [N-[7-(2-chloro-3-thienyl)-4-methyl-5,6,7,8-tetrahydro-5-quinolinyliden(imine)]iminomethanediamine. dihydrochloride], half-maximal inhibition (IC50) required 22 nM.

The compound `Cc1coc2c1C(=NN=C(N)N)CC(c1ccccc1Cl)C2` (stereo not drawn) [N-[6-(2-chlorophenyl)-3-methyl-4,5,6,7-tetrahydrobenzo[b]furan-4-yliden(imine)]iminomethanediamine. hydrochloride] showed a 50% inhibitory concentration (IC50) of 82 nM.

`Cc1ccnc2c1C(=NN=C(N)N)CC(c1ccccc1Cl)C2` (stereo not drawn) [N-[7-(2-chlorophenyl)-4-methyl-5,6,7,8-tetrahydro-5-quinolinyliden(imine)]iminomethanediamine. dihydrochloride] showed an IC50 of 40 nM. This IC50 is about 2-fold lower than that of the compound before.

In turn, `NC(N)=NN=C1CC(c2ccccc2)Oc2ccccc21` (stereo not drawn) [N-(2-phenyl-3,4-dihydro-2H-4-chromenyliden(imine))iminomethanediamine. hydrochloride] gave an IC50 of 3300 nM.

`Cc1ccnc2c1C(=NN=C(N)N)CC(c1ccccc1Br)C2` (stereo not drawn) [N-[7-(2-bromophenyl)-4-methyl-5,6,7,8-tetrahydro-5-quinolinyliden(imine)]iminomethanediamine. dihydrochloride] yielded an IC50 of 56 nM.

`Cc1ccc(F)cc1[C@H]1CC(=NN=C(N)N)c2c(C)ccnc2C1` [(S)-N-[7-(5-fluoro-2-methylphenyl)-4-methyl-(7S)-5,6,7,8-tetrahydro-5-quinolinyliden(imine)]iminomethanediamine 2CH3SO3H]: the IC50 came out at 14 nM. This IC50 lies about 4-fold lower than the previous one.

`Cc1ccnc2c1C(=NN=C(N)N)C[C@H](c1cc(Cl)sc1Cl)C2` [(S)-N-[7-(2,5-dichloro-3-thienyl)-4-methyl-(7S)-5,6,7,8-tetrahydro-5-quinolinyliden(imine)]iminomethanediamine 2CH3SO3H] showed an IC50 of 17 nM.

For `Cc1cnnc2c1C(=NN=C(N)N)CC(c1ccccc1Cl)C2` (stereo not drawn) [N-[7-(2-chlorophenyl)-4-methyl-5,6,7,8-tetrahydro-5-cinnolinyliden(imine)]iminomethanediamine. dihydrochloride], inhibition was half-maximal at 26 nM (IC50).

`Cc1ccc2c(n1)CC(c1ccccc1)CC2=NN=C(N)N` (stereo not drawn) [N-(2-methyl-7-phenyl-5,6,7,8-tetrahydro-5-quinolinyliden(imine))iminomethanediamine. dihydrochloride] came in with an IC50 of 2800 nM.

Compound `Cc1ccnc2c1C(=NN=C(N)N)CC(c1cccs1)C2` (stereo not drawn) [N-[4-methyl-7-(2-thienyl)-5,6,7,8-tetrahydro-5-quinolinyliden(imine)]iminomethanediamine. dihydrochloride] showed an IC50 of 47 nM.

Take `Cc1ccnc2c1C(=NN=C(N)N)CC(c1sc(Cl)cc1Cl)C2` (stereo not drawn) [N-[7-(3,5-dichloro-2-thienyl)-4-methyl-5,6,7,8-tetrahydro-5-quinolinyliden(imine)]iminomethanediamine. dihydrochloride]: the midpoint of inhibition, the IC50, lay at 49 nM.

`Cc1ccnc2c1C(=NN=C(N)N)C[C@@H](c1cc(Cl)sc1Cl)C2` [(R)-N-[7-(2,5-dichloro-3-thienyl)-4-methyl-(7R)-5,6,7,8-tetrahydro-5-quinolinyliden(imine)]iminomethanediamine 2CH3SO3H] showed an IC50 of 33 nM.

Compound `Cc1ccccc1C1CC(=NN=C(N)N)c2c(C)c[nH]c2C1` (stereo not drawn) [N-[3-methyl-6-(2-methylphenyl)-4,5,6,7-tetrahydro-1H-4-indolyliden(imine)]iminomethanediamine. dihydrochloride] gave an IC50 of 34 nM.

On to `Cc1cccc2oc(-c3ccccc3Cl)cc(=NN=C(N)N)c12` [N-[2-(2-chlorophenyl)-5-methyl-4H-4-chromenylidenmethyl]iminomethanediamine. dihydrochloride], for which the midpoint of inhibition, the IC50, lay at 360 nM.

As usually defined, the IC50 is the concentration that gives 50% inhibition. A high value points to weaker potency in that assay.
